Reference: patent US20050164913A1, “Disinfecting composition” (Veckis Industries Ltd., priority 2002, published 2005)

How the values were obtained:
Format in all cases: cell-based
[1] = tested on: Staphylococcus aureus (strain 906); assay: Antimicrobial activity of samples: death time of test-microorganism Staphylococcus aureus
[2] = tested on: E. coli (strain 1257); assay: Antimicrobial activity of samples: death time of test-microorganism E. coli
[3] = tested on: Bacillus cereus (strain 96); assay: Antimicrobial activity of samples: death time of test-microorganism Bacillus cereus; settings: sample concentration 5.0 %
[4] = statement of the text on Table 1

Row | Compound | Death time of test-microorganisms (min) Staphylococcus aureus ([1]; sample concentration 0.1 %) [min] | Death time of test-microorganisms (min) Staphylococcus aureus ([1]; sample concentration 5.0 %) [min] | Death time of test-microorganisms (min) E. coli ([2]; sample concentration 0.1 %) [min] | Death time of test-microorganisms (min) E. coli ([2]; sample concentration 5.0 %) [min] | Death time of test-microorganisms (min) Staphylococcus aureus ([1]; sample concentration 0.2 %) [min] | Death time of test-microorganisms (min) Staphylococcus aureus ([1]; sample concentration 0.5 %) [min] | Antibacterial action in words towards gram positive bacteria (vegetative forms) [1, 4] | Death time of test-microorganisms (min) E. coli ([2]; sample concentration 0.2 %) [min] | Death time of test-microorganisms (min) E. coli ([2]; sample concentration 0.5 %) [min] | Antibacterial action in words towards gram negative bacteria (vegetative forms) [2, 4] | Death time of test-microorganisms (min) Bacillus cereus [3] [min]
1 | O=C(O)CN(CCN(CC(=O)O)CC(=O)O)CC(=O)O.[Zn] [Ethylenediaminotetraacetate zinc complex] | >30 | >30 | >30 | >30 |  |  |  |  |  |  | 
2 | Monoglycinatecopper chloride complex | >30 | >30 | >30 |  | >30 | >30 | high enough efficacy | 30 | 15 | high enough efficacy | >360
